According to ChEMBL document CHEMBL1156618, “Design, synthesis and in vitro antitumor activity of 4-aminoquinoline and 4-aminoquinazoline derivatives targeting EGFR tyrosine kinase” (Bioorg Med Chem, 2008):
Activity calls are given as the source filed them. No cut-off for these calls is given here.

System: MCF7
Test: Cytotoxicity against human MCF7 cells after 48 hrs by SRB assay
Assay type: functional, cell-based

Compound	IC50 [µM]	Activity
COc1cc2nc(Cl)nc(Nc3ccc(S(=O)(=O)Nc4cc(C)on4)cc3)c2cc1OC	1.98	
CCOc1ccc2nc(C)cc(Nc3cc(OC)c(OC)cc3C(=O)OC)c2c1	1.67	
COc1cc2nc(Cl)nc(N3CCN(S(=O)(=O)c4ccc(C)cc4)CC3)c2cc1OC	1.08	
CCOc1ccc2nc(C)cc(Nc3ccc(S(=O)(=O)Nc4nccs4)cc3)c2c1		inactive
CCOc1ccc2nc(C)cc(Nc3cccc(O)c3)c2c1	2.84	
CCOc1ccc2nc(C)cc(Nc3ccc(S(=O)(=O)Nc4ncccn4)cc3)c2c1	3.96	
CCOc1ccc2nc(C)cc(N3CCN(C(=O)c4ccco4)CC3)c2c1	4.31	
CCOc1ccc2nc(C)cc(Nc3ccc(Cl)cc3Cl)c2c1	4.38	
CCOc1ccc2nc(C)cc(Nc3ccc(S(=O)(=O)NC(=N)N)cc3)c2c1	19.2	
CCOc1ccc2nc(C)cc(Nc3ccc(S(=O)(=O)Nc4cc(C)on4)cc3)c2c1	13.8	
COc1cc2nc(Cl)nc(Nc3ccc(S(=O)(=O)Nc4nccs4)cc3)c2cc1OC	0.13	
